# Results taken from EP0211490B1, “Antibiotics of the vancomycin-class” (SMITHKLINE BEECHAM CORPORATION, priority 1985, dated 1987).
# Bridge positions count the residues as written; N and C are the ends. Square brackets hold non-standard residues; d marks the D form. Peptide text beside a SMILES is read from it. * marks the point of attachment. Ileψ(thiazoline)Cys = CC[C@H](C)[C@H](N)C1=N[C@H](C(=O)*)CS1; dOrn = NCCC[C@@H](N)C(=O)O
# Test system: Staph. aureus HH 127
# Experiment: in vivo activity against intraperitoneal infection in mice (ED50)
# Details: Staphylococcus aureus, HH127, read-out: ED₅₀
# Description: The ED₅₀'s were as follows: AAD 216 aglycone, 7.6 mg/kg; AAD 216 pseudo- aglycone, 7.6 mg/kg; AAD 216A pseudoaglycone, 5.0 mg./kg; vancomycin, 1.56 mg/kg. Similarly, the ED₅₀'s of AAD 216A pseudoaglycone, AAD 216B pseudoaglycone, AAD 216C pseudoaglycone and vancomycin, determined by utilizing a similar protocol, were 12.5 mg/kg, 7.6 mg/kg, 10.8 mg/kg and 1.92 mg/kg, respectively.
row,Compound,ED50
1,CNC1C(=O)NC2C(=O)NC(C(=O)NC3C(=O)NC4C(=O)NC(C(=O)NC(C(=O)O)c5cc(O)cc(O)c5-c5cc4ccc5O)C(O)c4cc(Cl)c(c(Cl)c4)Oc4cc3cc(c4O)Oc3ccc(cc3Cl)C2O)c2cc(cc(O)c2Cl)Oc2cc1ccc2O (stereo not shown) [AAD 216 aglycone],7.6 mg/kg

# Test system: K. aridum
# Experiment: susceptibility of K. aridum to antibiotic disks (diffusion method)
# Format: cell-based, Kibdelosporangium aridum
# Details: BBL susceptibility disks, content per antibiotic; one week at 28°C
# Description: Susceptibility of K. aridum to antibiotics was examined by placing BBL susceptibility disks on nutrient agar plates seeded with K. aridum as an overlay. Diameters of the zones of inhibition were measured after incubation for one week at 28°C.
# Susceptibility to Antibiotics. By the diffusion method, K. aridum was resistant to disks impregnated with gentamicin (10 µg), tobramycin (10 µg), streptomycin (10 µg), vancomycin (30 µg), penicillin (10 units), bacitracin (2 units), lincomycin (2 µg), clindamycin (2 µg), and cephalothin (30 µg). Chlortetracycline (5 µg) produced 18 mm zones of inhibition; tetracycline (5 µg) 11-12 mm zones; rifampin (5 µg) 11-15 mm zones; novobiocin (5 µg) 27-28 mm zones. All zones of inhibition contained at least a few resistant colonies.
row,Compound,susceptibility by the diffusion method (in words)
1,CC[C@H](C)[C@H](N)C1=N[C@H](C(=O)N[C@@H](CC(C)C)C(=O)N[C@H](CCC(=O)O)C(=O)N[C@H](C(=O)N[C@H]2CCCCNC(=O)[C@H](CC(N)=O)NC(=O)[C@@H](CC(=O)O)NC(=O)[C@H](Cc3cnc[nH]3)NC(=O)[C@@H](Cc3ccccc3)NC(=O)[C@H]([C@@H](C)CC)NC(=O)[C@@H](CCCN)NC2=O)[C@@H](C)CC)CS1 [bacitracin] ({Ileψ(thiazoline)Cys}-L[dE]IK[dOrn]I[dF]H[dD]N; lactam 4-C),resistant
2,CC(=O)OCC1=C(C(=O)O)N2C(=O)[C@@H](NC(=O)Cc3cccs3)[C@H]2SC1 [cephalothin],resistant
3,CCC[C@@H]1C[C@@H](C(=O)N[C@@H]([C@H]2O[C@H](SC)[C@H](O)[C@@H](O)[C@H]2O)[C@@H](C)O)N(C)C1 [lincomycin],resistant
4,[H]/N=C(/N)N[C@H]1[C@H](O)[C@@H](O)[C@H](O[C@@H]2O[C@@H](C)[C@](O)(C=O)[C@H]2O[C@@H]2O[C@@H](CO)[C@H](O)[C@@H](O)[C@@H]2NC)[C@@H](N/C(N)=N\[H])[C@@H]1O [streptomycin],resistant
5,NC[C@H]1O[C@H](O[C@H]2[C@H](O)[C@@H](O[C@H]3O[C@H](CO)[C@@H](O)[C@H](N)[C@H]3O)[C@H](N)C[C@@H]2N)[C@H](N)C[C@@H]1O [tobramycin],resistant
6,CN[C@H](CC(C)C)C(=O)N[C@H]1C(=O)N[C@@H](CC(N)=O)C(=O)N[C@H]2C(=O)N[C@H]3C(=O)N[C@H](C(=O)N[C@H](C(=O)O)c4cc(O)cc(O)c4-c4cc3ccc4O)[C@H](O)c3ccc(c(Cl)c3)Oc3cc2cc(c3O[C@@H]2O[C@H](CO)[C@@H](O)[C@H](O)[C@H]2O[C@H]2C[C@](C)(N)[C@H](O)[C@H](C)O2)Oc2ccc(cc2Cl)[C@H]1O [vancomycin],resistant
7,gentamicin,resistant
8,penicillin,resistant

# Same assay, conditions: disk 5 µg; nutrient agar seeded with K. aridum, one week at 28°C; zones contained a few resistant colonies
row,Compound,zones of inhibition
1,CN(C)[C@@H]1C(O)=C(C(N)=O)C(=O)[C@@]2(O)C(O)=C3C(=O)c4c(O)ccc(Cl)c4[C@@](C)(O)[C@H]3C[C@@H]12 [Chlortetracycline],18 mm
2,CO[C@@H]1[C@@H](OC(N)=O)[C@@H](O)[C@H](Oc2ccc3c(O)c(NC(=O)c4ccc(O)c(CC=C(C)C)c4)c(=O)oc3c2C)OC1(C)C [novobiocin],27-28 mm
3,CO[C@H]1/C=C/O[C@@]2(C)Oc3c(C)c(O)c4c(O)c(c(/C=N/N5CCN(C)CC5)c(O)c4c3C2=O)NC(=O)/C(C)=C\C=C\[C@H](C)[C@H](O)[C@@H](C)[C@@H](O)[C@@H](C)[C@H](OC(C)=O)[C@@H]1C [rifampin],11-15 mm
4,CN(C)[C@@H]1C(O)=C(C(N)=O)C(=O)[C@@]2(O)C(O)=C3C(=O)c4c(O)cccc4[C@@](C)(O)[C@H]3C[C@@H]12 [tetracycline],11-12 mm
